From patent US20250213707A1, “COMPOUND FOR INCREASING EFFICACY OF ONCOLYTIC VIRUSES” (ABLEVIA BIOTECH GMBH, priority 2022, published 2025)

Columns and labels:
mAb ADK8 = assay: Epitope mapping of mAb ADK8 against AAV peptides; format: binding, mice
From the text: Monoclonal antibody ADK8 was generated by immunizing mice with AAV8 capsids. It is directed against the assembled AAV8 capsid (Sonntag et al, 2011). […] Moreover, the binding of AAV8 to the nuclear membrane as well as the nuclear entry were abrogated following neutralization by ADK8. […] ADK8 also cross-reacts with capsid proteins from other AAV serotypes such as AAV1, AAV3, AAV7 (Mietzsch et al, 2014) and was therefore chosen as an example from which general conclusions about the present invention can be drawn.
As for the other antibodies (see examples above), several clusters were identified, delineating regions from which preferred peptides can be deduced. Most preferably, the peptides aligned below according to their binding strengths can be used for selective antibody depletion and detection as hereinabove.

mAb 9C12 = assay: Epitope mapping of monoclonal antibody 9C12 against cyclic peptides of the AdV hexon protein (peptide microarray); format: binding, mice; conditions: cyclic 7mer, 10mer, 13mer peptides of AdV hexon
Method: Monoclonal antibody 9C12 (alias mAB TC31-9C12·C9-s) was generated by immunizing mice with the hexon protein (Uniprot ID: P04133 which corresponds to GenBank: BAG48782.1). […] In brief, diluted antibody was incubated with GFP-expressing replication-defective Ad vector and subsequently added to Hela cells followed by fluorescence readout. […] The binding signal of mAb 9C12 to the peptides yielded several candidates that could be aligned and clustered against the protein. An epitopic cluster region of 20 amino acids was identified from which paratope binding peptides can be preferentially derived. Below are the aligments of the corresponding peptide hits from this screen. […] Cyclic peptides were selected out of up to 50 top binders in this experiment.

[1] = system: IgG from human donors (anti-AAV antibodies); assay: Screen for anti-AAV antibodies in human sera, 2452 linear 15-amino-acid AAV peptides on microarrays (Table 1); format: binding; parameters: key to group I: X: the deduplicated aggregate of the respective top 10 peptide hits for each donor was compiled and designated as group I; key to group II: X: the deduplicated aggregate of the respective top 25 peptide hits for each donor was compiled and designated as group II; key to group III: X: the deduplicated aggregate of the respective top 50 peptide hits for each donor was compiled and designated as group III; conditions: human donor IgG binding to linear 15-amino-acid AAV peptides on microarray, fluorescence; for group I: membership in deduplicated aggregate of top 10 peptide hits for each donor; for group II: membership in deduplicated aggregate of top 25 peptide hits for each donor; for group III: membership in deduplicated aggregate of top 50 peptide hits for each donor
Summary of the method: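 Peptide hits were grouped I to IV by pooling each donor's top 10, 25, 50 or 250 background-corrected fluorescence signals, after deduplication. Signals came from donor IgG, purified on protein G, bound to arrayed 15-residue linear peptides (2452 total) spanning 16 AAV sequences.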

[2] = system: IgG from human donors (anti-AAV antibodies); assay: Screen for anti-AAV antibodies in human sera based on cyclic 14-amino-acid AAV peptides on microarrays (Table 2); format: binding; parameters: key: X: the deduplicated aggregate of the respective top 50 peptide hits for each donor was compiled and designated as group I; conditions: human donor IgG; circularized AAV peptides; top 50 peptide hits for each donor
Method: More than 1200 cyclic peptides derived from the sequences of human and rhesus monkey AAV sequences and artificial AAV sequences according to Table 2 and with a sequence length of 14 amino-acids each were synthesized.
Samples obtained from human donors were screened for antibodies against these AAV-derived peptides immobilized on microarrays. To this end, IgG was prepared from blood obtained from the human donors by protein G purification. Each IgG sample was incubated with the peptide microarrays and Ig binding signals were detected by fluorescence. All antibody binding signals to the peptides on the arrays were background subtracted and ranked for each sample and a deduplicated aggregate of the respective top 250 peptide hits for each donor with the corresponding protein sequence of origin (as obtained from UniProt or other sources) was compiled (designated as group II). Further, the deduplicated aggregate of the respective top 50 peptide hits for each donor was compiled and designated as group I.
Altogether, group I contains 47 distinct peptide hits (assigned to the corresponding AAV vectors in Table 2) and group II yielded 172 distinct peptide hits. Evidently, group I is a subset of group II.

Row | Substance | peptide number according to binding strength (mAb ADK8) | group I [2] | further results
1 | 341 (SAHQGCLPPF) [compound 341] | 39 | – | –
2 | 344 (GRSSFYC) [compound 344] | 14 | – | –
3 | 337 (VLGSAHQGCLPPF) [compound 337] | 27 | – | –
4 | 347 (QAVGRSSFYCLEY) [compound 347] | 33 | – | –
5 | GNGLDKGEPVNAAD [SEQ ID NO: 1984] | – | – | ranked binding signal obtained from the microarray (01 binds strongest) (mAb 9C12): 17; group I [1]: X; group II [1]: X; group III [1]: X
6 | EEIRTTNPVATEQY (REGION 1..14: note = peptide derived from viral capsid protein) [SEQ ID NO: 1980] | – | – | ranked binding signal obtained from the microarray (01 binds strongest) (mAb 9C12): 13; group I [1]: X; group II [1]: X; group III [1]: X
7 | 330 (NWLPGPC) [compound 330] | 04 | – | –
8 | DSESVPDPQPLGEP (REGION 1..14: note = peptide derived from viral capsid protein) [SEQ ID NO: 1978] | – | – | ranked binding signal obtained from the microarray (01 binds strongest) (mAb 9C12): 11; group I [1]: X; group II [1]: X; group III [1]: X
9 | 346 (AVGRSSFYCL) [compound 346] | 24 | – | –
10 | TQYSTGQVSVEIEW (REGION 1..14: note = peptide derived from viral capsid protein) [SEQ ID NO: 1969] | – | – | ranked binding signal obtained from the microarray (01 binds strongest) (mAb 9C12): 02; group I [1]: X; group II [1]: X; group III [1]: X
11 | 350 (PLIDQYLYYL) [compound 350] | 29 | – | –
12 | 343 (PYVLGSAHQGCLP) [compound 343] | 46 | – | –
13 | 349 (DQYLYYL) [compound 349] | 19 | – | –
14 | 336 (GCLPPFP) [compound 336] | 13 | – | –
15 | 317 (LQGPIWA) [compound 317] | 12 | – | –
16 | TIANNLTSTIQVFT (REGION 1..14: note = peptide derived from viral capsid protein) [SEQ ID NO: 1968] | – | – | ranked binding signal obtained from the microarray (01 binds strongest) (mAb 9C12): 01; group I [1]: X; group II [1]: X; group III [1]: X
17 | VTQNEGTKTIANNL [SEQ ID NO: 1970] | – | – | ranked binding signal obtained from the microarray (01 binds strongest) (mAb 9C12): 03; group I [1]: X; group II [1]: X; group III [1]: X
18 | 328 (YFGYSTPWGY) [compound 328] | 28 | – | –
19 | GDSESVPDPQPLGE [SEQ ID NO: 1983] | – | – | ranked binding signal obtained from the microarray (01 binds strongest) (mAb 9C12): 16; group I [1]: X; group II [1]: X; group III [1]: X
20 | 322 (GYSTPWGYFD) [compound 322] | 10 | – | –
21 | 329 (FGYSTPWGYFDFN) [compound 329] | 34 | – | –
22 | 1895 (ANNLTSTVQIFADS; REGION 1..14: note = peptide derived from viral capsid protein) [compound 1895] | – | X | –
23 | 1904 (YHLNGRDSLVNPGP; REGION 1..14: note = peptide derived from viral capsid protein) [compound 1904] | – | X | –
24 | 1937 (DDEDKFFPMSGVMI; REGION 1..14: note = peptide derived from viral capsid protein) [compound 1937] | – | X | –
25 | 1918 (APGKKRPVDQSPQE; REGION 1..14: note = peptide derived from viral capsid protein) [compound 1918] | – | X | –
26 | 323 (YSTPWGYFDF) [compound 323] | 11 | – | –

Row | Substance | peptide number according to binding strength (mAb ADK8) | group I [2] | further results
27 | 1929 (TESVPDPQPIGEPP; REGION 1..14: note = peptide derived from viral capsid protein) [compound 1929] | – | X | –
28 | 1899 (SESVPDPQPIGEPP; REGION 1..14: note = peptide derived from viral capsid protein) [compound 1899] | – | X | –
29 | 348 (NGSQAVGRSSFYC) [compound 348] | 35 | – | –
30 | 1910 (FNIQVKEVTTNDGV; REGION 1..14: note = peptide derived from viral capsid protein) [compound 1910] | – | X | –
31 | 1914 (SFITQYSTGQVSVE; REGION 1..14: note = peptide derived from viral capsid protein) [compound 1914] | – | X | –
32 | 1928 (DKAYDQQLQAGDNP; REGION 1..14: note = peptide derived from viral capsid protein) [compound 1928] | – | X | –
33 | 315 (DVYLQGP) [compound 315] | 05 | – | –
34 | 339 (YVLGSAHQGC) [compound 339] | 37 | – | –
35 | 1912 (PQILIKNTPVPADP; REGION 1..14: note = peptide derived from viral capsid protein) [compound 1912] | – | X | –
36 | 338 (LPYVLGSAHQGCL) [compound 338] | 32 | – | –
37 | 345 (AVGRSSFYCLEYF) [compound 345] | 22 | – | –
38 | 340 (CLPPFPA) [compound 340] | 38 | – | –
39 | 318 (RDVYLQG) [compound 318] | 20 | – | –
40 | 325 (TPWGYFDFNRFHC) [compound 325] | 18 | – | –
41 | 1892 (DSQWLGDRVITTST; REGION 1..14: note = peptide derived from viral capsid protein) [compound 1892] | – | X | –
42 | 1934 (LQQQNTAPQIGTVN; REGION 1..14: note = peptide derived from viral capsid protein) [compound 1934] | – | X | –
43 | 1920 (KTAPGKKRPVDQSP; REGION 1..14: note = peptide derived from viral capsid protein) [compound 1920] | – | X | –
44 | 351 (IDQYLYY) [compound 351] | 36 | – | –
45 | 1903 (NYNKSVNVDFTVDT; REGION 1..14: note = peptide derived from viral capsid protein) [compound 1903] | – | X | –
46 | 331 (WLPGPCY) [compound 331] | 15 | – | –
47 | 1926 (DKAYDRQLDSGDNP; REGION 1..14: note = peptide derived from viral capsid protein) [compound 1926] | – | X | –
48 | 1901 (PQYGYLTLNNGSQA; REGION 1..14: note = peptide derived from viral capsid protein) [compound 1901] | – | X | –
49 | 321 (FGYSTPWGYF) [compound 321] | 09 | – | –
50 | 342 (VLGSAHQGCL) [compound 342] | 45 | – | –
51 | 1933 (DKDKFFPMSGVMIF; REGION 1..14: note = peptide derived from viral capsid protein) [compound 1933] | – | X | –
52 | 313 (VYLQGPI) [compound 313] | 02 | – | –
